Laboratory results reported in patent publication US11571397B2, “Compositions and methods for treating seizure-induced sudden death” (ZOGENIX INTERNATIONAL LIMITED, priority 2018, dated 2023).

Tests used:
[1] = test system: children with refractory epilepsy; settings: 0.5 to 1 mg/kg/day; cited from earlier work
DBA/1 mice [2] = assay: Audiogenic seizures (AGSz) and S-IRA in DBA/1 mice, initial testing protocol (30 min, 12 h, 24 h, then 24 h intervals); type: in vivo, mouse
Description: These studies involved age matched (<80 days) male DBA/1 mice obtained from ENVIGO. Because there were no significant sex differences in the AGSz incidence (frequency), severity and S-IRA susceptibility in DBA/1 mice, males were used in this study. The mice were primed as described in previous studies (Faingold et al., (2010). Epilepsy Behav. 17:436-40; Faingold, et al. (2011) Brain Res. 1418:104-10; Faingold, et al., (2011) Epilepsy Behav. 22:186-90). Briefly, the mice were maintained on an ad libitum diet under a 12 h light-dark cycle in a temperature and humidity-controlled laboratory animal medicine facility. Starting at postnatal day 23-25, the mice were primed and tested for consistent susceptibility to AGSz and S-IRA by presenting an intense acoustic stimulus, as described previously.
(§1) The typical seizure semiology in the DBA/1 mice begins with a wild running phase, followed by clonic-tonic seizures and then tonic hind-limb extension that immediately leads to S-IRA during post-ictal behavioral depression (PID). The onset of S-IRA was visually determined by the occurrence of respiratory failure following loss of the righting reflex, relaxation of the pinnae, and then a generalized loss of muscle tone. These behaviors are reliable indicators of imminent sudden death in DBA mice. Resuscitation was initiated within 10 s after pinna relaxation and the generalized loss of muscle tone, which was effective in reversing S-IRA and reviving >90% of the mice. The mice were placed in a supine position, and a polyethylene tube (4.4 mm external diameter) connected to the outflow of a rodent respirator (Harvard Apparatus 680), pumping one cc of room air at 200 strokes/min, was the placed over the nostrils, which produced observable displacement of the chest. Respiratory support was provided until spontaneous breathing rhythm returned, which required ˜19 sec. The mice were monitored until they regained the righting reflex and then returned to their home cage. Video recordings of seizure behaviors and recovery were made for off-line evaluation and analysis, including the duration of PID, as indicated by time from muscle tone loss to return of the righting reflex.
(§2) The experiments herein disclosed examined the dose-response relationship of FFA (10-40 mg/kg, i.p.) on AGSz-induced behaviors in DBA/1 mice compared to vehicle (saline) treated control mice using different seizure-testing protocols. This initial protocol involved induction of AGSz at 30 min, 12 h and 24 h after drug administration, and subsequently at 24 h intervals until susceptibility to S-IRA returned. These studies were aimed at determining whether FFA can reduce the incidence (frequency) and severity of AGSz and susceptibility to S-IRA. […] To determine the effect of FFA on the severity of AGSz in DBA/1 mice, the ordinal scoring system of De Sarro and coworkers was used: no seizure=0; wild running=1; clonic seizure=2; tonic seizure=3; death/S-IRA=4. The median effective dose (ED50) for FFA for blocking AGSz at 30 min following the i.p. injection in DBA/1 mice was calculated using a second order polynomial equation (y=65.113x^2-2.0715x-63.578) that gave the best fit (R^2=0.9989).
(§3) The videos of seizure behaviors were analyzed visually, and the incidence (frequency) of AGSz, seizure severity, and incidence (frequency) of S-IRA following drug treatment were compared statistically to vehicle controls using the Chi-square, Mann-Whitney U or paired samples t-test with SPSS software. The ED50 was calculated using SigmaPlot 13 and Microsoft® Excel. The experimental protocols used in these studies were approved by the Laboratory Animal Care and Use Committee of Southern Illinois University School of Medicine, which are in accordance with National Institutes of Health guidelines for the care and use of laboratory animals. Measures to minimize animal usage as well as pain and discomfort were included in these procedures.

[3] = test system: zebrafish model of Dravet syndrome; settings: in vivo; cited from earlier work
[4] = Preliminary pharmacokinetic experiments in DBA/1 mice; type: in vivo, mouse; settings: 16 h after 15 mg/kg
Protocol: DBA/1 mice show consistent susceptibility to sudden death due to S-IRA immediately following AGSz unless resuscitation is rapidly provided. In the present study FFA exerted a significant dose- and time-dependent blockade of S-IRA and AGSz. […] The significant incidence of selective S-IRA blockade was also seen in the mice that were tested initially at 16 h following 15 mg/kg of FFA (FIG. 4B), further confirming the effectiveness of the drug and the time-course of the effect. […] Furthermore, the dose of 15 mg/kg FFA in adult mouse, based on body surface areas in accordance with Reagan-Shaw and co-workers, translates to the clinically effective range [1.8 mg/kg/day (child) or 1.2 mg/kg/day (adult)] used in patients. The presently disclosed FFA doses are also similar to those in the rodent studies, which established the original usefulness of this drug.

DBA/1 mice [5] = assay: AGSz and S-IRA in DBA/1 mice, 8-hour testing protocol; type: in vivo, mouse
Description: as §1, §2, §3
FIGS. 2A through 2D show a time-course of selective S-IRA blocking effect of FFA in DBA/1 mice (8 h testing protocol). The 8-h testing protocol during the first 24 h was employed in the next group of studies of the effect of 5-20 mg/kg (i.p.) doses of FFA. […] The severity of AGSz remained unaffected in the mice that received 5 (light horizontal line bars; n=9) mg/kg FFA. A significant return of AGSz severity among the FFA treated DBA/1 mice occurred by 24 h. [**p<0.01; #p<0.001 indicate statistically different from controls, Mann-Whitney U test].

[6] = 20 and 40 mg/kg i.p., starting at 30 min, vs saline

Structure (SMILES): CCNC(C)Cc1cccc(C(F)(F)F)c1 (racemic) [FFA, 3-trifluoromethyl-N-ethylamphetamine]
- number of seizures experienced by the patients [1]: reduction
- incidence (frequency) of S-IRA (DBA/1 mice [2]; 10 mg/kg): not affected
- incidence of tonic seizures (DBA/1 mice [2]; 10 mg/kg): not affected
- incidence (frequency) of AGSz (DBA/1 mice [2]; 10 mg/kg i.p.): No significant effect
- AGSz severity (DBA/1 mice [2]; 10 mg/kg, at 12 h): significantly reduced
- reduction of S-IRA (DBA/1 mice [2]; 10 mg/kg, at 12 h): 36.4%
- reduction of tonic seizure (DBA/1 mice [2]; 10 mg/kg, at 12 h): 54.6%
- mice showing S-IRA blockade following tonic seizure (selective S-IRA block) (DBA/1 mice [2]; 10 mg/kg, at 12 h, not statistically significant): 18.2%
- duration of AGSz blockade (DBA/1 mice [2]; 15 mg/kg): < 24 h
- onset of AGSz blockade (DBA/1 mice [2]; 15 mg/kg): 12 h
- tonic seizure blocking effect (DBA/1 mice [2]; 15 mg/kg): delayed and transient
- return of maximal seizure severity (DBA/1 mice [2]; 20 mg/kg): 24 h
- duration of seizure severity decrease (DBA/1 mice [2]; 40 mg/kg): up to 8 days
- mice continuing to show reduced susceptibility to tonic AGSz and S-IRA for up to 8 days (DBA/1 mice [2]; 40 mg/kg): 33.3%
- return of maximal seizure severity (DBA/1 mice [2]; 40 mg/kg): 48 h
- time at which reduction in severity score occurred (DBA/1 mice [2]; 10 and 15 mg/kg): 12 h
- incidence (frequency) of AGSz (DBA/1 mice [2]; 15, 20 and 40 mg/kg i.p. vs saline treated controls): significantly reduce
- incidence (frequency) of S-IRA (DBA/1 mice [2]; 15, 20 and 40 mg/kg i.p., beginning at 30 min, vs saline): significant reduction
- duration of reductions of seizure incidence, severity and S-IRA susceptibility (DBA/1 mice [2]; 20-40 mg/kg): ≥ 48 h
- susceptibility to AGSz (DBA/1 mice [2]; 20 and 40 mg/kg i.p., at 30 minutes, vs saline-treated controls): significantly reduced
- median AGSz severity score (DBA/1 mice [2]; [6]): significant reduction
- tonic seizure incidence (DBA/1 mice [2]; [6]): significant reduction
- return of S-IRA susceptibility (DBA/1 mice [2]; FFA-treated mice, initial protocol): ≤ 72 h
- ED50 (DBA/1 mice [2]; Mus musculus, ip, 0.5 h, 30 min after i.p. injection, read-out: ED50 for blockade of AGSz): 21.7 mg/kg
- blocking electrographic and seizure-like behavioral activity [3]: effective
- plasma level of FFA and area under the curve vs levels in Dravet syndrome patients after single oral dose (0.8 mg/kg) [4]: comparable
- blocking any AGSz behavior (DBA/1 mice [5]; 5 mg/kg): ineffective
- effect against tonic seizures (DBA/1 mice [5]; 5 mg/kg): ineffective
- incidence of S-IRA (DBA/1 mice [5]; 5 mg/kg): not affected
- severity of AGSz (DBA/1 mice [5]; 5 mg/kg): unaffected
- mice with selective blockade of S-IRA among those that showed tonic AGSz (DBA/1 mice [5]; 15 mg/kg, 16 h time point (n=5)): 100%
- total incidence of selective S-IRA blockade (DBA/1 mice [5]; 15 mg/kg, during time-course studies): 70%
- median AGSz severity scores (DBA/1 mice [5]; 10, 15 and 20 mg/kg i.p., starting at 8 h, vs saline): significant reduction
- incidence of S-IRA (DBA/1 mice [5]; 10, 15 and 20 mg/kg, starting at 8 h, vs saline): significant reduction
- return of susceptibility to tonic seizures (DBA/1 mice [5]; 10-20 mg/kg): 16 to 48 h
- incidence of tonic seizures (DBA/1 mice [5]; 10-20 mg/kg, at 8 h, vs saline): significantly reduced
- duration of PID (loss of righting reflex) (DBA/1 mice [5]; 16 h after 15 mg/kg, mice with selective S-IRA blockade, pre-drug 168.6±43.4 s): 34.6 ± 13.3 s
- return of AGSz severity (DBA/1 mice [5]; FFA treated mice, 8-h protocol): ≤ 24 h
- return of S-IRA susceptibility (DBA/1 mice [5]; FFA treated mice, 8-h protocol): 48 h
